Assays:
HepG2 cells [1] = assay: Intracellular RONS detection with DHE fluorescent probe; format: cell-based, human; details: IC50 concentration
Description: (§1) Two different fluorescent dyes, i.e., 2,7-dichlorodihydrofluorescein diacetate (DCFH-DA, Cayman Chemicals Company, Ann Arbor, MI) and dihydroethidium (DHE, Sigma-Aldrich, St. Louis, MO) were utilized for the determination of intracellular levels of RONS after 1, 4, and 24 h of incubation with tested oxime reactivators or TBHP (positive control). Cells incubated with oxime-free DMEM represented untreated control. After the incubation, the experimental medium was removed and replaced with a solution of DCFH-DA or DHE at concentrations of 20 and 5 μmol/L, respectively. The cells were subsequently incubated at 37 °C in a CO2 incubator for 45 min. Afterward, the fluorescence intensity of each well was measured using a Spark multimode microplate reader at an excitation wavelength of 485 nm for DCFH-DA or 528 nm for the DHE probe and an emission wavelength of 535 or 590 nm, respectively. Each experiment was carried out in triplicate and repeated three independent times.
(§2) The toxicological indices IC50 were calculated from control-subtracted triplicates using nonlinear regression (four parameters) using GraphPad Prism 9 software version 9.3.0 (GraphPad Software Inc., San Diego, CA). One-way analysis of variance (ANOVA) followed by Dunnetʼs multiple comparison test was used for RONS, MDA, NP-SH, and NP-SS-NP statistical analysis by GraphPad Prism 9 software, version 9.3.0. Data are expressed as means ± standard deviation (SD) of three independent measurements (n = 3). Significant differences between oxime-treated and untreated control groups (p ≤ 0.05) were marked by an asterisk (*).

HepG2 cells [2] = assay: Total intracellular MDA by LC-MS/MS; format: cell-based, human; details: IC50 concentration
HepG2 cells [3] = assay: Intracellular nonprotein thiols (NP-SH) by HPLC-UV; format: cell-based, human; details: 24 h, IC50 concentration
Description: (§3) The culture medium was removed from a 25 cm^2 culture flask on the day of the experiment, and cells were washed twice with 3 mL of phosphate-buffered saline (PBS; GE Healthcare Life Sciences, South Logan, UT). Subsequently, 3 mL of a plain DMEM medium (negative control) and a DMEM medium containing TBHP (positive control) or individual oximes were added to each flask, and cells were incubated for 1, 4, and 24 h. The concentration of individual oxime and TBHP in the DMEM medium corresponded to the IC50 value. After incubation, the experimental medium was removed, and cells were washed with 3 mL of PBS and harvested by scraping. The resulting suspension was centrifuged at 220g and 21 °C for 5 min (Universal 320R centrifuge, Hettich, Tuttlingen, Germany). The supernatant was removed and dried cell pellets were stored at −80 °C. Each experiment was carried out in three independent replicates.
(§4) The cell pellets were thawed at room temperature, resuspended in 500 μL of ultrapure water (Millipore Purification System, Merck, Millipore, Darmstadt, Germany), and sonicated for 2 min (2 s cycle, amplitude 20%) in a Q500 homogenizer (QSONICA Sonicators, Newton). Then, the homogenate was divided into three parts: 250 μL for the determination of malondialdehyde (MDA), 100 μL for each determination of nonprotein thiols (NP-SH) and disulfides (NP-SS-NP), and 10 μL for the Bradford protein assay.
(§5) The HepG2 cell homogenate obtained, as described in Section 2.6, was processed for the determination of intracellular NP-SH and NP-SS-NP, according to Muckova et al.[11] The samples were analyzed using the HPLC system described above equipped with an SPD 20-AV Prominence UV/vis detector. The analysis was carried out on a Phenomenex LUNA C18 column (150 mm × 3 mm, 3 μm, 100 Å) protected with a Security Cartridge (4 mm × 2 mm, Phenomenex, Torrance) at 30 °C and a constant flow rate of 0.330 mL/using the mobile phase consisting of 0.9% aqueous FA (A) and ACN (B) under gradient conditions: 0–1 min 12% B, 1.1–2 min 12–55% B, 2–7 min 55% B, 7.1 min 55% B, and 7.1–10 min 12% B. The detector was set at 326 nm and the sample injection volume was 20 μL.

HepG2 cells [4] = assay: Intracellular RONS detection with DCFH-DA fluorescent probe; format: cell-based, human; details: IC50 concentration
Description: as §1, §2

AChE = details: in rat blood; read-out: IC50 (concentration required to inhibit AChE activity by 50%); cited from earlier work
[5] = reference not given; cited from earlier work
HepG2 cells [6] = assay: Intracellular nonprotein disulfides (NP-SS-NP) by HPLC-UV; format: cell-based, human; details: IC50 concentration
Description: as §3, §4, §5

| Compound | increase of RONS (DHE probe) vs negative control (HepG2 cells [1]; 4 h incubation) | increase of RONS (DHE probe) vs negative control (HepG2 cells [1]; 24 h incubation) | increase of MDA levels vs untreated control (HepG2 cells [2]; 4 h incubation) | increase of MDA levels vs untreated control (HepG2 cells [2]; 24 h exposure) | decrease in NP-SH levels vs untreated control (HepG2 cells [3]) | increase of RONS (DCFH-DA probe) vs negative control (HepG2 cells [4]; 1 h incubation) | increase of RONS (DCFH-DA probe) vs negative control (HepG2 cells [4]; 4 h incubation) | increase of RONS (DCFH-DA probe) vs negative control (HepG2 cells [4]; 24 h incubation) | IC50 (AChE) | log P [5] | increase in NP-SS-NP levels vs untreated control (HepG2 cells [6]; 1 h) | increase in NP-SS-NP levels vs untreated control (HepG2 cells [6]; 4 h) | increase in NP-SS-NP levels vs untreated control (HepG2 cells [6]; 24 h) |
| --- | --- | --- | --- | --- | --- | --- | --- | --- | --- | --- | --- | --- | --- |
| O/N=C/c1cc[n+](CCCC[n+]2ccc(/C=N/O)cc2)cc1 [K074, 1,1′-(butane-1,4-diyl)bis(4((hydroxyimino)methyl)pyridine-1-ium) dibromide] | 33.4% | 42.8% | 23.6% | 36.1% | 11.6% | 171% | 244% | 117% | ~66 µM | −1.74 | 42.8% | 52.4% | 72.3% |
| NC(=O)c1cc[n+](CCCC[n+]2ccc(C=NO)cc2)cc1.[Br-].[Br-] [K048, 4-carbamoyl-1-(4-(4-((hydroxyimino)methyl)pyridin-1-ium-1-yl)butyl)pyridin-1-ium dibromide] | 25.8% | – | 17.2% | 35.4% | 11.4% | 146% | 193% | 115% | ~643 µM | −2.61 | 34.8% | 54.8% | 61.5% |

— PMC10731658 (Chemical Research in Toxicology, 2023)
